Drawing on patent publication US11390603B2, “Crystalline forms of a biphenyl compound” (THERAVANCE BIOPHARMA R&D IP, LLC, priority 2005, dated 2022), this text covers Ki for one molecule.

In the experiment the target is T1, M3 muscarinic receptor subtype (Homo sapiens, UniProt P20309).
T1 construct: expressed in transfected cells
Nature of the experiment: Radioligand binding assay ([3H]-NMS displacement). As to conditions: CHO cell membranes, [3H]-NMS at 1 nM; tested in this or a similar assay. As to the method: CHO cell lines stably expressing cloned human hM1, hM2, hM3 and hM4 muscarinic receptor subtypes, respectively, were grown to near confluency in medium consisting of HAM's F-12 supplemented with 10% FBS and 250 μg/mL Geneticin. The cells were grown in a 5% CO2, 37° C. incubator and lifted with 2 mM EDTA in dPBS. Cells were collected by 5 minute centrifugation at 650×g, and cell pellets were either stored frozen at −80° C. or membranes were prepared immediately. For membrane preparation, cell pellets were resuspended in lysis buffer and homogenized with a Polytron PT-2100 tissue disrupter (Kinematica AG; 20 seconds×2 bursts). Crude membranes were centrifuged at 40,000×g for 15 minutes at 4° C. […] The protein concentration of the membrane suspension was determined by the method described in Lowry, O. et al., Journal of Biochemistry 193:265 (1951). […]
Radioligand binding assays were performed in 96-well microtiter plates in a total assay volume of 100 μL. […] Filter plates were rinsed three times with wash buffer (10 mM HEPES) to remove unbound radioactivity. […] The plates were then counted in a PerkinElmer Topcount liquid scintillation counter (PerkinElmer Inc., Wellesley, Mass.). Binding data were analyzed by nonlinear regression analysis with the GraphPad Prism Software package (GraphPad Software, Inc., San Diego, Calif.) using the one-site competition model. […]

T1 sequence (P20309 whole entry): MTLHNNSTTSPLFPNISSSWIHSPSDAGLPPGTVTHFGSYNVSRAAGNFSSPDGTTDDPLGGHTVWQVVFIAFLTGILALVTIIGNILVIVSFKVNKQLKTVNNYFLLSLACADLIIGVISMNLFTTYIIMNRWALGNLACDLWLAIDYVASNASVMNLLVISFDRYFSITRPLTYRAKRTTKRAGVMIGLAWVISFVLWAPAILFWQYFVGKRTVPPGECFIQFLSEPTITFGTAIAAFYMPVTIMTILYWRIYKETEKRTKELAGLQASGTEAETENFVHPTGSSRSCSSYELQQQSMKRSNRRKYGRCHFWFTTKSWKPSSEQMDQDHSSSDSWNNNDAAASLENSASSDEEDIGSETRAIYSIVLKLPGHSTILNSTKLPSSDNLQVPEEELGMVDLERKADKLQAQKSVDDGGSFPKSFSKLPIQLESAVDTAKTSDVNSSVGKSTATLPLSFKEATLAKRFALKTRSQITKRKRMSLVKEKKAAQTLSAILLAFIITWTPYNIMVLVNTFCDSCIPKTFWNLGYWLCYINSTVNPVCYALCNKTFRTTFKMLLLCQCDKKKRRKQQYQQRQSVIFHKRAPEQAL

In the case of `CN(CCN1CCC(OC(=O)Nc2ccccc2-c2ccccc2)CC1)C(=O)c1ccc(CN2CCC(C(N)=O)CC2)cc1` [compound of formula I, biphenyl-2-ylcarbamic acid 1-(2-{[4-(4-carbamoylpiperidin-1-ylmethyl)benzoyl]methylamino}ethyl)piperidin-4-yl ester], the Ki is under 5 nM.
